# Structures can show the parent of a compound that is named as a salt.
# Columns and labels:
# [1] = biological target: T1, Prostaglandin G/H synthase 2 (Oryctolagus cuniculus, UniProt O02768); assay: Inhibition of COX-2 in rabbit peripheral venous blood assessed as formation of 12-hydroxyheptadecatrienoic acid after 24 hrs in by HPLC presence of calcium ionophore […] and lipopolysaccharide; assay type: tissue-based
# T1 sequence (O02768 whole entry): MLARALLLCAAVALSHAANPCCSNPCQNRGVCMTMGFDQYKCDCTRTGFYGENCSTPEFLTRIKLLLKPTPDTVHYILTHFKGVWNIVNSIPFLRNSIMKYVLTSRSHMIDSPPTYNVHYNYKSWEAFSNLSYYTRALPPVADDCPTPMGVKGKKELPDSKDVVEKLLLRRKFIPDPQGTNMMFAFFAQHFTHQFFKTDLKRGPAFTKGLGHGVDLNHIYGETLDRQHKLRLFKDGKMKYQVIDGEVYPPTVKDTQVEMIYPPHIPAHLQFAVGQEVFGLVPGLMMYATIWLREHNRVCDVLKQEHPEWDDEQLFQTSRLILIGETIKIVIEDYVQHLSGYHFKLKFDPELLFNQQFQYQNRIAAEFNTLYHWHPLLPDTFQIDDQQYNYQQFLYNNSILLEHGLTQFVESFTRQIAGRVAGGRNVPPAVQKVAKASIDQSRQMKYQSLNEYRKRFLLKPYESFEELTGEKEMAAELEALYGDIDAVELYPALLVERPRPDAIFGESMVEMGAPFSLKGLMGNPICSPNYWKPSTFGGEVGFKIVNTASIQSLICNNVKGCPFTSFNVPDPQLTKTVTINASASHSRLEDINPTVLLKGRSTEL
# [2] = Inhibition of 5-LOX in rabbit peripheral venous blood assessed as formation of […] after 30 mins by HPLC; assay type: tissue-based, Oryctolagus cuniculus
# Mus musculus [3] = assay: Analgesic activity in BALB/c mouse assessed as inhibition of acetic acid-induced writhing response for 15 mins at 18.16 mg/kg, po; assay type: functional; conditions: 0.25 h
# Rattus norvegicus [4] = assay: Antiinflammatory activity in Wistar rat assessed as inhibition of carrageenan-induced paw edema at 9.08 mg/kg, po administered 1 hr before carrageenan challenge measured at 3 hrs by plethysmometer; assay type: functional
# [5] = biological target: T2, Prostaglandin G/H synthase 1 (Oryctolagus cuniculus, UniProt O97554); assay: Inhibition of COX-1 in rabbit peripheral venous blood assessed as formation of 12-hydroxyheptadecatrienoic acid after 24 hrs by HPLC in presence of calcium ionophore A23187
# T2 sequence (O97554 whole entry): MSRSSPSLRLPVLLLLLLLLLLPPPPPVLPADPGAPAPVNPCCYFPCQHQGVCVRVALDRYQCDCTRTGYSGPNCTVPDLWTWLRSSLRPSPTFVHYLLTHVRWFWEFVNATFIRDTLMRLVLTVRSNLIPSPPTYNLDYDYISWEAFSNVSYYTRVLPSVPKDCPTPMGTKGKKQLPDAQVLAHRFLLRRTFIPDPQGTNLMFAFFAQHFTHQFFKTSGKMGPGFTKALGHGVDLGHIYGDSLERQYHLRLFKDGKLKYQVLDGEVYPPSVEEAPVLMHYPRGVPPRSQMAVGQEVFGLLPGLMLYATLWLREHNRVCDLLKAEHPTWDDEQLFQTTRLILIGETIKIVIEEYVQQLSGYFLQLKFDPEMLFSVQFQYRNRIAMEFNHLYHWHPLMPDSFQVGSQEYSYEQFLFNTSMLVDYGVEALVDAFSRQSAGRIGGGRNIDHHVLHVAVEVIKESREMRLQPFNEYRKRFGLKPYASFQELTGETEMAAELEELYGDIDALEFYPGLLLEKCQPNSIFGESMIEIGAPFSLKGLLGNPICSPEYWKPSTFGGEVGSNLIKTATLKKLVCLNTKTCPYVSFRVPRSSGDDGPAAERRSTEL
# Rattus norvegicus [6] = assay: Ulcerogenic effect in Wistar rat assessed as gastric ulcer area at 9.08 mg/kg, po administered for 7 days by microscopy; assay type: toxicity, organism-based, Stomach; parameters: dose 9.08 mg/kg, route oral; conditions: in vivo, 168 h
# Rattus norvegicus [7] = assay: Antiinflammatory activity in Wistar rat assessed as inhibition of carrageenan-induced paw edema at 9.08 mg/kg, po administered 1 hr before carrageenan challenge measured at 6 hrs by plethysmometer; assay type: functional
# Rattus norvegicus [8] = assay: Antiinflammatory activity in Wistar rat assessed as inhibition of carrageenan-induced paw edema at 9.08 mg/kg, po administered 1 hr before carrageenan challenge measured at 1 hr by plethysmometer; assay type: functional
# Oryctolagus cuniculus = species on record: Oryctolagus cuniculus; assay: Selectivity ratio, IC50 for COX-1in rabbit peripheral venous blood to IC50 for COX-2 in rabbit peripheral venous blood; assay type: tissue-based
# Rattus norvegicus [9] = assay: Antiinflammatory activity in Wistar rat assessed as inhibition of carrageenan-induced paw edema at 9.65 mg/kg, po administered 1 hr before carrageenan challenge measured at 1 hr by plethysmometer; assay type: functional
# Mus musculus [10] = assay: Analgesic activity in BALB/c mouse assessed as inhibition of acetic acid-induced writhing response for 15 mins at 19.30 mg/kg, po; assay type: functional; conditions: 0.25 h
# Rattus norvegicus [11] = assay: Ulcerogenic effect in Wistar rat assessed as gastric ulcer area at 9.65 mg/kg, po administered for 7 days by microscopy; assay type: toxicity, organism-based, Stomach; parameters: dose 9.65 mg/kg, route oral; conditions: in vivo, 168 h
# Rattus norvegicus [12] = assay: Antiinflammatory activity in Wistar rat assessed as inhibition of carrageenan-induced paw edema at 9.65 mg/kg, po administered 1 hr before carrageenan challenge measured at 6 hrs by plethysmometer; assay type: functional
# Rattus norvegicus [13] = assay: Antiinflammatory activity in Wistar rat assessed as inhibition of carrageenan-induced paw edema at 9.65 mg/kg, po administered 1 hr before carrageenan challenge measured at 3 hrs by plethysmometer; assay type: functional
# Rattus norvegicus [14] = assay: Antiinflammatory activity in Wistar rat assessed as inhibition of carrageenan-induced paw edema at 10.12 mg/kg, po administered 1 hr before carrageenan challenge measured at 1 hr by plethysmometer; assay type: functional
# Rattus norvegicus [15] = assay: Ulcerogenic effect in Wistar rat assessed as gastric ulcer area at 10.12 mg/kg, po administered for 7 days by microscopy; assay type: toxicity, organism-based, Stomach; parameters: dose 10.12 mg/kg, route oral; conditions: in vivo, 168 h
# Rattus norvegicus [16] = assay: Antiinflammatory activity in Wistar rat assessed as inhibition of carrageenan-induced paw edema at 10.12 mg/kg, po administered 1 hr before carrageenan challenge measured at 3 hrs by plethysmometer; assay type: functional
# Mus musculus [17] = assay: Analgesic activity in BALB/c mouse assessed as inhibition of acetic acid-induced writhing response for 15 mins at 20.24 mg/kg, po; assay type: functional; conditions: 0.25 h
# Rattus norvegicus [18] = assay: Antiinflammatory activity in Wistar rat assessed as inhibition of carrageenan-induced paw edema at 10.12 mg/kg, po administered 1 hr before carrageenan challenge measured at 6 hrs by plethysmometer; assay type: functional
SMILES,IC50 [1] [µM],IC50 [2] [µM],IC50 [5] [µM],Ratio IC50 (Oryctolagus cuniculus),other results
Cc1ccc2c(c1)/C(=C\c1ccc(S(N)(=O)=O)cc1)C(=O)N2,> 50,> 50,> 50,–,–
NS(=O)(=O)c1ccc(/C=C2/C(=O)Nc3ccc(F)cc32)cc1,0.18,9.87,0.62,3.44,inhibition in vivo at 9.65 mg/kg (Rattus norvegicus [9]): 33.3%; inhibition in vivo at 19.3 mg/kg (Mus musculus [10]): 54%; Activity (Rattus norvegicus [11]): 0.45 mm2; inhibition in vivo at 9.65 mg/kg (Rattus norvegicus [12]): 27.4%; inhibition in vivo at 9.65 mg/kg (Rattus norvegicus [13]): 44.4%
CS(=O)(=O)c1ccc(/C=C2/C(=O)Nc3cc(Cl)ccc32)cc1,2.39,2.99,0.24,0.1,inhibition in vivo at 10.12 mg/kg (Rattus norvegicus [14]): 19.4%; Activity (Rattus norvegicus [15]): 0.75 mm2; inhibition in vivo at 10.12 mg/kg (Rattus norvegicus [16]): 23.8%; inhibition in vivo at 20.24 mg/kg (Mus musculus [17]): 55.2%; inhibition in vivo at 10.12 mg/kg (Rattus norvegicus [18]): 21.6%

# Continued, in another order:
IC50 [1] [µM],IC50 [2] [µM],IC50 [5] [µM],SMILES,Ratio IC50 (Oryctolagus cuniculus),other results
5.52,9.51,9.32,CS(=O)(=O)c1ccc(/C=C2/C(=O)Nc3ccccc32)cc1,1.69,inhibition in vivo at 18.16 mg/kg (Mus musculus [3]): 54.4%; inhibition in vivo at 9.08 mg/kg (Rattus norvegicus [4]): 38.9%; Activity (Rattus norvegicus [6]): 0.56 mm2; inhibition in vivo at 9.08 mg/kg (Rattus norvegicus [7]): 21.6%; inhibition in vivo at 9.08 mg/kg (Rattus norvegicus [8]): 28.6%
> 50,> 50,> 50,NS(=O)(=O)c1ccc(/C=C2/C(=O)Nc3ccccc32)cc1,–,–
> 50,> 50,> 50,Cc1ccc2c(c1)/C(=C\c1ccc(S(C)(=O)=O)cc1)C(=O)N2,–,–
0.11,–,37.6,CC(C)(C)c1cc(/C=C2\SC(N)=NC2=O)cc(C(C)(C)C)c1O [DARBUFELONE MESYLATE],–,–

# From ChEMBL document CHEMBL1287762, “Synthesis and biological evaluation of 3-[4-(amino/methylsulfonyl)phenyl]methylene-indolin-2-one derivatives as novel COX-1/2 and 5-LOX inhibitors” (Bioorg Med Chem Lett, 2010)
